Tests used:
[1] = tested on: 3T3 L1 fibroblasts differentiated to adipocytes; experiment: Glucose transport activity (14C-2-deoxy-D-glucose uptake); assay type: cell-based; details: Mus musculus, 3T3-L1; concentration producing increase in glucose transport generally 150% of the vehicle control; insulin 5.6 nM; read-out: Glucose Transport EC (effective concentration)
Experimental: Glucose Transport Activity
3T3 L1 fibroblasts (ATCC) were grown in Dulbecco's modified Eagie's medium (DMEM) with 10% fetal bovine serum (FBS). The cells were plated at a density of 3×10^4 cells/well in 24-well plates. Two days after confluence was reached, the cells were treated for 3 days with […] isobutylmethylxanthine (IBMX), 1 μM dexamethasone, and 1.7 μM insulin. The cells were then transferred to DMEM with 10% fresh bovine serum with 1.7 μM insulin for 2 more days. The cells were maintained in DMEM with 10% FBS for an additional 4 days. Finally the cells were serum starved overnight in 0.1% bovine serum albumin (BSA) in DMEM prior to exposure to the test compounds.
The following day, the medium was replaced with 150 mM NaCl, 1.7 mM KCl, 0.9 mM CaCl2, K2HPO4 (pH 7.4) to which was added either the experimental compounds, or their vehicle (DMSO). Insulin or its vehicle (0.01% BSA) was diluted in the assay buffer (containing test compound or vehicle, respectively) to a final concentration of 5.6 nM. After incubation for 30 min at 37° C., 0.5 μCi/ml of ^14C-2-deoxy-D-glucose was added, and the incubation was continued for additional 30 min at 37° C. The cells were then washed 3 times with ice-cold PBS/20 mM glucose and lysed in 250 μl of lysis buffer (50 mM HEPES pH 7.6, 1% Triton X-100) for 30 min at room temperature. Radioactivity in the lysate was quantified by scintillation counting.
Once ^14C-2-deoxy-D-glucose is transported into the cell it is not released. Glucose transport is, therefore, proportional to the amount of radioactivity in the lysate. The concentration of compound necessary to produce an increase in glucose transport greater than the sum of the standard deviation of the vehicle control plus the largest standard deviation of a test sample (generally 150% of the vehicle control) was recorded as the EC (effective concentration) The results of the glucose transport activity assay are shown in Table 2,

[2] = molecular target: T1, β-kinase domain of the human insulin receptor (CKD) (Homo sapiens, UniProt P06213); experiment: 32P-cytoplasmic kinase domain (CKD) autophosphorylation assay; assay type: biochemical; details: 32P incorporated into CKD band, 10 minutes at room temperature, 50 μM ATP; test concentration not given
T1 construct: The complete β-kinase domain of the human insulin receptor (CKD); made in house
Experimental: ^32P-cytoplasmic Kinase Domain (CKD) Autophosphorylation Assay
The complete β-kinase domain of the human insulin receptor (CKD) was expressed in, and purified from, baculovirus. CKD (4.0 μg/ml), in a solution of 29 mM HEPES (pH 7.6), 0.05% Triton X-100, 10 mM MgCl2, 2 mM MnCl2 (50 μl final volume), was combined with 50 μM ATP, and 5 μCi ^32P-ATP (3000 Ci/mmol.). A test compound, or the vehicle (DMSO), was added to a final DMSO concentration of 1%. The mixture was incubated for 10 minutes at room temperature. The reaction was terminated by the addition of 10 μl of 200 mM EDTA. A 30 μl volume was removed, mixed with 5 μl of 6× Laemmeli sodium dodecyl sulfate (SDS) treatment buffer, and heated to 95° C. for 5 minutes. A 20 μl aliquot was then run on an SDS-PAGE gel. The radioactivity incorporated into the CKD band is quantified by phosphorimaging of the gel, or scintillation counting of the excised bands.
The potency of a compound for increasing phosphorylation is expressed as a percentage of the vehicle level.

T1 sequence (P06213 980-1382 limits assumed): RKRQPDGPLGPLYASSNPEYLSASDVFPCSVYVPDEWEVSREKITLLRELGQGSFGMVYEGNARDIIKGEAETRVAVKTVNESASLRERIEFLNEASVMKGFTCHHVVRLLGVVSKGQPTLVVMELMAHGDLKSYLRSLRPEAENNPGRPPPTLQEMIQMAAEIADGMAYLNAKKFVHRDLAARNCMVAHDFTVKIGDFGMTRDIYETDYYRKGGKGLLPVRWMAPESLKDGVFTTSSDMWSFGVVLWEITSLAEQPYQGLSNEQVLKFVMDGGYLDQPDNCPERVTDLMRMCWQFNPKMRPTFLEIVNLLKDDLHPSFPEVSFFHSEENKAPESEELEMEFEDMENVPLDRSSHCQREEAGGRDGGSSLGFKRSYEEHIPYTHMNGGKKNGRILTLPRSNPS

CKD phosphorylation (percentage of the vehicle level) [2] | SMILES | EC50 [1]
97.8% | O=C(O)c1cc(NC(=O)c2cc(C(=O)Nc3cc(C(=O)O)cc(C(=O)O)c3)cc(C(=O)Nc3cc(C(=O)O)cc(C(=O)O)c3)c2)cc(C(=O)O)c1 [Compound 21, 5-({3,5-bis[N-(3,5-dicarboxyphenyl)carbamoyl]phenyl}carbonylamino)benzene-1,3-dicarboxylic acid] | 3.2 µM
118.1% | O=C(Nc1cccc(C(=O)O)c1C(=O)O)c1cc(C(=O)Nc2cccc(C(=O)O)c2C(=O)O)cc(C(=O)Nc2cccc(C(=O)O)c2C(=O)O)c1 [Compound 22, 3-({3,5-bis[N-(2,3-dicarboxyphenyl)carbamoyl]phenyl}carbonylamino)benzene-1,2-dicarboxylic acid] | 3.2 µM
87.4% | COC(=O)c1ccccc1NC(=O)c1cc(C(=O)Nc2ccccc2C(=O)OC)cc(C(=O)Nc2ccccc2C(=O)OC)c1 [Compound 23, methyl 2-[(3,5-bis{N-[2-(methoxycarbonyl)phenyl]carbamoyl}phenyl)carbonyl-amino]benzoate] | 1.6 µM

— patent US6600069B2, “Benzene tricarboxylic acid derivatives as insulin receptor activators” (Telik, Inc., priority 2000, dated 2003)
